Test results taken from paper PMC12441861, “Next-Generation Lipid Prodrugs Orally Deliver Tenofovir via Enhanced Chylomicron Incorporation” (ACS Pharmacology & Translational Science, 2025).

What was measured:
[1] = Cytotoxicity, ATP luminescence (Cell Titer Glow) assay; conditions: human
Caco-2 cell-derived CMs = type: in vitro ADME, human; conditions: for increase in CM concentration compared to TXL / CM concentration relative to ω-unmodified BOG prodrug (21a vs 8a, 21b vs 8b): 20 h
Description: [formula] 1 Chylomicron (CM) Isolation and Drug Quantification Methods ^a a (1) Caco-2 cells were grown to confluence. (2) Lipid mix was added to media (final drug concentration of 10 μM), and cells were incubated for 4 h. (3) Cells were washed 3× with PBS. (4) Cells were incubated in fresh media overnight. (5) CM-containing media was collected. (6) Media was combined with a 1.20 g/mL NaCl solution in an ultracentrifugation tube, 500 μL H2O was carefully layered on top, and the mixture was centrifuged at 10,950 RCF for 3 h. (7) The CM-containing upper layer was carefully isolated with a fine-tip pipette. (8) Test drug was then extracted from the CM layer with 70% ACN and quantified using LC-MS/MS.
With the presence of CMs in isolated Caco-2 cell extracts confirmed and reproducibility validated across replicates and different drugs, we were eager to investigate drug incorporation during CM biogenesis in vitro. Accordingly, we added test compound (Figure ) to differentiated Caco-2 cells along with the lipid mix to a final test drug concentration of 10 μM. While 10 μM was selected as a standard concentration for these studies, higher concentrations could allow detection of other compounds with low CM association in future experiments. In either case, CMs secreted by Caco-2 cells can be isolated postincubation, and drug concentrations within CMs can be assessed using highly sensitive LC-MS/MS methodology. Positive (high c Log D) and negative (low c Log D) control compounds were selected to validate this assay. […] Given these properties, we expected CAB to readily package into CMs in vitro. […]. […] This sets the stage for quantitative comparisons of TXL and its functionalized analogs, which are detailed below.
At 14-days postconfluence, Caco-2 cells were incubated in a lipid mixture to induce secretion of CMs. For the lipid solution, oleic acid (50 mg), lecithin (40 mg), and sodium taurocholate (48 mg) were weighted out into an Eppendorf tube, and the volume was brought up to 900 μL with PBS, followed by vigorous vortexing to ensure sample homogeneity. This 100× lipid mixture was then diluted into growth media to achieve the desired concentrations (2 mM oleic acid, 1.36 mM lecithin, 1 mM sodium taurocholate) by adding 500 μL of the lipid mixture to 49.5 mL of media. The lipid-supplemented media was thoroughly mixed and sterilized by filtration using a 250 mL sterile vacuum filter. For the drug-exposed CM experiments, each test compound was dissolved in 2 mM human serum albumin (HAS, Sigma, essentially fatty acid free) in DPBS, then added to 10 mL aliquots of lipid-containing media to achieve a final concentration of 10 μM. Subsequently, lipid-containing media was added to Caco-2 cells and incubated for 4 h at 37 °C. After incubation, cells were washed twice with PBS then incubated for 4, 8, or 20 h at 37 °C in fresh, colorless growth medium. Media was collected into 15 mL falcon tubes and centrifuged at 2000g to remove cell debris. Postcentrifugation, the supernatant was transferred to 50 mL Nalgene Oak Ridge High-Speed PPCO Centrifuge Tubes. Next, to adjust the density for ultracentrifugation, 1.19 g of NaCl in 2 mL of deionized (DI) H2O were added to reach a final volume of 5 mL, corresponding to a density of 1.20 g/mL. This mixture was dissolved by vortexing and balanced by weight. 500 μL of DI H2O was carefully overlaid onto the mixture. Ultracentrifugation was performed for 2 h and 30 min at 10,920 relative centrifugal force (RCF). Immediately after centrifugation, the top 500 μL layer, containing CMs, was carefully collected using a gel-loading pipet tip.
To an aliquot of CM extract was added an equal volume of ACN into 1.5 mL Eppendorf tubes. Tubes were shaken for 1 h at rt then centrifuged at 15,000 RCF to remove debris. The clear supernatant was transferred to a glass vial and concentrated under reduced pressure to yield a dry solid. Sample was then reconstituted in 70% ACN in H2O, filtered and then analyzed. […]

Caco-2 cells = assay: Control: release of membrane-associated prodrug into media after wash; type: in vitro ADME, human; conditions: 10 μM, 15 min at 37 °C, media at 0, 5 and 15 min postwash
Description: After characterizing the impact of membrane dynamics on the packaging of ω-unfunctionalized prodrugs into CMs, we proceeded to screen the ω-CF3-functionalized BOG lipid prodrugs in our CM assay. All collections were done at the 20 h time point to allow full diffusion of prodrug out of the membrane. […] However, CM concentration strongly correlated with c Log D values (R ^2 = 0.89, Figure c), consistent with trends observed for ω-unfunctionalized prodrugs and highlighting the role of lipophilicity on CM incorporation. […] This is further supported by the 2.4-fold increase in CM concentration observed for 15a compared to TXL, where the only difference is the inclusion of the terminal CF3 group. […] Therefore, as an important control experiment, Caco-2 cells were incubated with 10 μM of TXL or compound 21a (n = 6 per group) in the presence of the lipid mixture for 15 min at 37 °C. After incubation, the cells were washed three times with PBS, and fresh drug-free growth media was added. Aliquots of the media were collected at 0, 5, and 15 min postwash. Samples were analyzed by LC-MS/MS for the presence of TXL and 21a.

increase in CM concentration compared to TXL (Caco-2 cell-derived CMs; 10 μM) [fold] | CM concentration relative to ω-unmodified BOG prodrug (21a vs 8a, 21b vs 8b) (Caco-2 cell-derived CMs; 10 μM) | SMILES | CC50 at 48 h [1] [nM] | CC50 at 48 h ([1]; TZM-bl cells) [nM] | prodrug concentration in media postwash (Caco-2 cells) | detection of compound in CM extract by LC-MS/MS (Caco-2 cell-derived CMs; 10 μM test drug, Caco-2 cells) | concentration in CMs compared with BOG prodrugs (Caco-2 cell-derived CMs; 8 h, 10 μM)
3.3 | approximately 1.8 fold | C[C@H](Cn1cnc2c(N)ncnc21)OCP(=O)(O)OC[C@H](COCCCCCCCCCCCCCCCC(F)(F)F)OCc1ccccc1 [21a, Ammonium[(1R)-2-(6-Aminopurin-9-yl)-1-methyl-ethoxy]methyl-[(2S)-2-benzyloxy-3-(16,16,16-trifluorohexadecoxy)propoxy]phosphinate] | – | > 1000 | below the limit of detection | – | –
3.8 | ~1.6 fold | C[C@H](Cn1cnc2c(N)ncnc21)OCP(=O)(O)OC[C@H](COCCCCCCCCCCCCCCCCCC(F)(F)F)OCc1ccccc1 [21b, Ammonium[(1R)-2-(6-aminopurin-9-yl)-1-methyl-ethoxy]methyl-[(2S)-2-benzyloxy-3-(18,18,18-trifluorooctadecoxy)propoxy]phosphinate] | – | > 1000 | – | – | –
– | – | CCCCCCCCCCCCCCCCOCCCOP(=O)(O)CO[C@H](C)Cn1cnc2c(N)ncnc21 [TXL, hexadecyloxypropyl (HDP)-TFV, reference compound] | > 1000 | – | below the limit of detection | successfully detected in CM isolates | significantly greater concentrations in CMs than all BOG substituted prodrugs

SMILES | increase in CM concentration compared to TXL (Caco-2 cell-derived CMs; 10 μM) [fold] | CM concentration relative to ω-unmodified BOG prodrug (21a vs 8a, 21b vs 8b) (Caco-2 cell-derived CMs; 10 μM) | CC50 at 48 h [1] [nM] | CC50 at 48 h ([1]; TZM-bl cells) [nM] | prodrug concentration in media postwash (Caco-2 cells) | detection of compound in CM extract by LC-MS/MS (Caco-2 cell-derived CMs; 10 μM test drug, Caco-2 cells) | concentration in CMs compared with BOG prodrugs (Caco-2 cell-derived CMs; 8 h, 10 μM)
C[C@H](Cn1cnc2c(N)ncnc21)OCP(=O)(O)OCCCOCCCCCCCCCCCCCCCC(F)(F)F [15a, Ammonium[(1R)-2-(6-aminopurin-9-yl)-1-methyl-ethoxy]methyl-[3-(16,16,16-trifluorohexadecoxy)propoxy]phosphinate] | 2.4 | – | > 1000 | – | – | – | –
